Experimental data: ChEMBL document CHEMBL5543084, “Development of cannabidiol derivatives as potent broad-spectrum antibacterial agents with membrane-disruptive mechanism” (Eur J Med Chem, 2024)
In brackets after ≈: the same amount, converted by molar mass. Activity calls are given as the source filed them. The calls are words filed in the database; no cut-off is given here.

Tests used:
[1] = tested on: Staphylococcus aureus; experiment: Bactericidal activity against methicillin-resistant Staphylococcus aureus NCTC 10442 assessed as up-regulation of molecular functions related gene expression by measuring aminoacyl-tRNA hydrolase activity (GO:0004045) at 4 times of MIC concentration measured after 90 mins incubation by RNA sequencing (RNA-seq) study; type: functional, organism-based
[2] = Cytotoxicity against human HepG2 cells assessed as viable cells at 3.125 microg/ml incubated for 24 hrs by CCK-8 assay; type: toxicity, cell-based; conditions: at 3.125 µg/mL, read-out: Activity
[3] = tested on: Escherichia coli; experiment: Bactericidal activity against Escherichia coli ATCC 25922 assessed as down regulation of benzoate degradation gene expression at 4 times of MIC concentration measured after 90 mins incubation by RNA sequencing (RNA-seq) study; type: functional, organism-based
[4] = tested on: Escherichia coli; experiment: Bactericidal activity against Escherichia coli ATCC 25922 assessed as change in cell death associated gene expression by measuring down-regulation of outer membrane lipoprotein-coding gene (slp, D1792_ RS14130; porin, D1792_RS05555) gene expression at 4 times of MIC concentration measured after 90 mins incubation by RNA sequencing (RNA-seq) study; type: functional, organism-based
[5] = tested on: Staphylococcus aureus; experiment: Antibacterial activity against Staphylococcus aureus ATCC 29213 assessed as inhibition of bacterial growth incubated for 24 hrs by broth dilution method; type: functional
[6] = tested on: Escherichia coli; experiment: Antibacterial activity against Escherichia coli ATCC 25922 assessed as inhibition of bacterial growth incubated for 24 hrs in presence of 140 mM Na+ by broth dilution method; type: functional
[7] = tested on: Staphylococcus aureus; experiment: Antibacterial activity against Staphylococcus aureus ATCC 29213 assessed as inhibition of bacterial growth incubated for 24 hrs in presence of 1 mM Mg2+ by broth dilution method; type: functional
[8] = tested on: Staphylococcus aureus; experiment: Bactericidal activity against methicillin-resistant Staphylococcus aureus NCTC 10442 assessed as bacterial reduction at 8 time of MIC concentration incubated for 0.5 hrs by time-kill assay; type: functional
[9] = tested on: Cell membrane; experiment: Induction of outer membrane permeabilization in Pseudomonas aeruginosa ATCC 9027 assessed as increase in fluorescence intensity at 1 to 8 times MIC concentration by NPN-dye based fluorescence analysis; type: cell membranes
[10] = tested on: Klebsiella pneumoniae; experiment: Antibacterial activity against Klebsiella pneumoniae ATCC 10031 assessed as inhibition of bacterial growth incubated for 24 hrs in presence of 20 uM Fe3+ by broth dilution method; type: functional
[11] = tested on: Escherichia coli; experiment: Bactericidal activity against Escherichia coli ATCC 25922 assessed as down regulation of phenylalanine metabolism gene expression at 4 times of MIC concentration measured after 90 mins incubation by RNA sequencing (RNA-seq) study; type: functional, organism-based
[12] = tested on: Staphylococcus aureus; experiment: Antibacterial activity against methicillin-resistant Staphylococcus aureus NCTC 10442 assessed as inhibition of bacterial growth incubated for 24 hrs in presence of 20 uM Fe2+ by broth dilution method; type: functional
[13] = Cytotoxicity against mouse fibroblast NCTC clone 929 cells assessed as viable cells at 12.5 microg/ml incubated for 24 hrs by CCK-8 assay; type: toxicity, cell-based; conditions: NCTC clone 929 (L929) fibroblast cells, at 12.5 µg/mL, read-out: Activity
[14] = tested on: Staphylococcus aureus; experiment: (§1) Bactericidal activity against methicillin-resistant Staphylococcus aureus NCTC 10442 assessed as change in cell death associated gene expression by measuring down-regulation of biofilm formation plfA (DX983_RS01360) and plfB (DX983_RS01355) gene expression at 4 times of MIC concentration measured after 90 mins incubation by RNA sequencing (RNA-seq) study; type: functional, organism-based
[15] = tested on: Staphylococcus aureus; experiment: as §1, with “metabolic stress” for “cell death”, “glucosaminidase domain-containing protein (atl, DX983_RS02250)” for “biofilm formation plfA (DX983_RS01360) and plfB (DX983_RS01355)”; type: functional, organism-based; conditions: NTCC 10442
[16] = tested on: Cell membrane; experiment: Induction of cytoplasmic membrane permeabilization in Escherichia coli ATCC 25922 assessed as disruption of cell membrane integrity measured upto 60 mins by measuring increase in fluorescence intensity at 1 to 8 times of MIC concentration by SYTOX green dye based fluorescence analysis; type: cell membranes
[17] = tested on: Escherichia coli; experiment: Antibacterial activity against Escherichia coli ATCC 25922 assessed as inhibition of bacterial growth incubated for 24 hrs in presence of 4.5 mM K+ by broth dilution method; type: functional
[18] = tested on: Escherichia coli; experiment: (§2) Bactericidal activity against Escherichia coli ATCC 25922 assessed as change in metabolic stress associated gene expression by measuring down-regulation of gale (DX983_RS06370) gene expression at 4 times of MIC concentration measured after 90 mins incubation by RNA sequencing (RNA-seq) study; type: functional, organism-based
[19] = tested on: Staphylococcus aureus; experiment: Bactericidal activity against methicillin-resistant Staphylococcus aureus NCTC 10442 assessed as bacterial killing at 4 time of MIC concentration incubated for 2 hrs by time-kill assay; type: functional
[20] = tested on: Staphylococcus aureus; experiment: Bactericidal activity against methicillin-resistant Staphylococcus aureus NCTC 10442 assessed as bacterial reduction at 4 time of MIC concentration incubated for 2 hrs by time-kill assay; type: functional
[21] = tested on: Escherichia coli; experiment: Antibacterial activity against Escherichia coli ATCC 25922 assessed as inhibition of bacterial growth incubated for 24 hrs by broth dilution method; type: functional
[22] = Cytotoxicity against mouse fibroblast NCTC clone 929 cells assessed as viable cells at 6.25 microg/ml incubated for 24 hrs by CCK-8 assay; type: toxicity, cell-based; conditions: NCTC clone 929 (L929) fibroblast cells, at 6.25 µg/mL, read-out: Activity
[23] = tested on: Staphylococcus aureus; experiment: Antibacterial activity against methicillin-resistant Staphylococcus aureus NCTC 10442 assessed as inhibition of bacterial growth incubated for 24 hrs by broth dilution method; type: functional
[24] = tested on: Escherichia coli; experiment: Antibacterial activity against Escherichia coli ATCC 25922 assessed as inhibition of bacterial growth incubated for 24 hrs in presence of 20 uM Fe2+ by broth dilution method; type: functional
[25] = tested on: Lipoteichoic acid; experiment: Displacement of BODIPY-TR-cadaverine from Bacillus subtilis lipoteichoic acid (LTA) assessed as increase in fluorescence intensity at 1 times MIC measured after 30 mins by fluorescence spectrophotometric analysis
[26] = tested on: Staphylococcus aureus; experiment: Antibacterial activity against methicillin-resistant Staphylococcus aureus NCTC 10442 assessed as inhibition of bacterial growth incubated for 24 hrs in presence of 2.5 mM Ca2+ by broth dilution method; type: functional
[27] = tested on: Klebsiella pneumoniae; experiment: Antibacterial activity against Klebsiella pneumoniae ATCC 10031 assessed as inhibition of bacterial growth incubated for 24 hrs in presence of 19 uM Zn2+ by broth dilution method; type: functional
[28] = tested on: Escherichia coli; experiment: Bactericidal activity against Escherichia coli ATCC 25922 assessed as change in xenobiotics biodegradation and metabolism gene expression at 4 times of MIC concentration measured after 90 mins incubation by RNA sequencing (RNA-seq) study; type: functional, organism-based
[29] = tested on: Escherichia coli; experiment: as §2, with “cell death” for “metabolic stress”, “CDPglycerol glycero-phosphotransferase (D1792_RS11350)” for “gale (DX983_RS06370)”; type: functional, organism-based
[30] = tested on: Staphylococcus aureus; experiment: Antibacterial activity against methicillin-resistant Staphylococcus aureus NCTC 10442 assessed as inhibition of bacterial growth incubated for 24 hrs in presence of 4.5 mM K+ by broth dilution method; type: functional
[31] = tested on: Klebsiella pneumoniae; experiment: Antibacterial activity against Klebsiella pneumoniae ATCC 10031 assessed as inhibition of bacterial growth incubated for 24 hrs in presence of 20 uM Fe2+ by broth dilution method; type: functional
[32] = Cytotoxicity against human HepG2 cells assessed as viable cells at 6.25 microg/ml incubated for 24 hrs by CCK-8 assay; type: toxicity, cell-based; conditions: at 6.25 µg/mL, read-out: Activity
[33] = tested on: Escherichia coli; experiment: Antibacterial activity against Escherichia coli ATCC 25922 assessed as inhibition of bacterial growth incubated for 24 hrs in presence of 19 uM Zn2+ by broth dilution method; type: functional
[34] = tested on: Klebsiella pneumoniae; experiment: Antibacterial activity against Klebsiella pneumoniae ATCC 10031 assessed as inhibition of bacterial growth incubated for 24 hrs by broth dilution method; type: functional

## C=C(C)[C@@H]1CCC(C)=C[C@H]1c1c(OCCCNC(=N)N)cc(CCCCC)cc1OCCCNC(=N)N
[1]
  Activity: Active
[2]
  viability at 24 h, 3.125 microg/ml: 111%
[3]
  Activity: Active
[4]
  Activity: Active
[5]
  MIC: 0.78 mg/L (≈ 1.52 µM)
[6]
  MIC: 3.12 mg/L
[7]
  MIC: 1.56 mg/L
[8]
  Activity: 3 log10FFU/ml
[9]
  Activity: Dose-Dependent Effect
[10]
  MIC: 3.12 mg/L
[11]
  Activity: Active
[12]
  MIC: 0.39 mg/L
[13]
  viability at 24 h, 12.5 microg/ml: 80.4%
[14]
  Activity: Active
[15]
  Activity: Active
[16]
  Activity: Active
[17]
  MIC: 1.56 mg/L
[18]
  Activity: Active
[19]
  inhibition (INH): 99.9%
[20]
  Activity: 3 log10FFU/ml
[21]
  MIC: 3.12 mg/L (≈ 6.09 µM)
[22]
  viability at 24 h, 6.25 microg/ml: 86.2%
[23]
  MIC: 0.78 mg/L (≈ 1.52 µM)
[24]
  MIC: 1.56 mg/L
[25]
  Activity: 11.2%
[26]
  MIC: 0.39 mg/L
[27]
  MIC: 3.12 mg/L
[28]
  Activity: Active
[29]
  Activity: Active
[30]
  MIC: 0.39 mg/L
[31]
  MIC: 3.12 mg/L
[32]
  viability at 24 h, 6.25 microg/ml: 91.3%
[33]
  MIC: 0.78 mg/L
[34]
  MIC: 1.56 mg/L (≈ 3.04 µM)
